Six compounds from PMC4232510, “Identification of Functionally Important Residues of the Rat P2X4 Receptor by Alanine Scanning Mutagenesis of the Dorsal Fin and Left Flipper Domains” (PLoS ONE, 2014) can be followed below.

Usually EC50 stands for the concentration needed to bring the measured effect to its halfway point. Low readings indicate an effect from little substance, high ones a need for much substance.

Numbering of substitutions follows the chain as printed.

What all share (experiment): whole-cell patch clamp, HEK293T cells expressing mutant
What all share (format): cell-based
Conditions in all cases: for relative responsiveness: 100 µM agonist 2 s, relative to ATP (100%)
On the technique in general: Patch clamp records ionic current or voltage across a cell membrane.

One experiment deals with T1, rP2X4R L284A mutant (Rattus norvegicus, UniProt P51577, L284A).
T1 construct: expressed in transfected cells; host or cells: HEK293T
T1 sequence (P51577 1-388 L284A): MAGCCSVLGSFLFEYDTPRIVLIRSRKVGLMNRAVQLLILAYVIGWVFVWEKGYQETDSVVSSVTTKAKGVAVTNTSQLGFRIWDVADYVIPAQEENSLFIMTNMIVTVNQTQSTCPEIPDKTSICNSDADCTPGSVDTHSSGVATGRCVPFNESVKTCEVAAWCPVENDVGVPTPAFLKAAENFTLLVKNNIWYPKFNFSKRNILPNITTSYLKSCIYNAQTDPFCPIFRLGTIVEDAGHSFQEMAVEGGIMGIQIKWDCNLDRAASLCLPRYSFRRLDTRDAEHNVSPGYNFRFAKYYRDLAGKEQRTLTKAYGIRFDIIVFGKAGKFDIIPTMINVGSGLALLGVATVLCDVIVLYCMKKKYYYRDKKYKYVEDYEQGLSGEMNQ

A further experiment deals with T2, rP2X4R T211A mutant (Rattus norvegicus, UniProt P51577, T211A).
T2 construct: expressed in transfected cells; host or cells: HEK293T
T2 sequence (P51577 1-388 T211A): T1 sequence (P51577 1-388 L284A) with T211A, A284L

The target in another experiment is T3, rP2X4R L206A mutant (Rattus norvegicus, UniProt P51577, L206A).
T3 construct: expressed in transfected cells; host or cells: HEK293T
T3 sequence (P51577 1-388 L206A): T1 sequence (P51577 1-388 L284A) with L206A, A284L

[1] abbreviates: 100 µM ATP 60 s, biexponential fit.
Where [2] appears, read: contribution of τdes2, 100 µM ATP 60 s.
[3] abbreviates: decay after removal of 1 or 3 µM ATP, 3 µM IVM.
The mark [4] stands for this setting: naïve receptors, 2–5 s application.
Where [5] appears, read: 3 µM IVM 4-6 min vs IVM-untreated.

For the compound “2′(3′-O-(4-Benzoylbenzoyl)adenosine 5′-triphosphate [BzATP]”, the relative responsiveness at rP2X4R L284A mutant is 20.6±0.2 %; at rP2X4R T211A mutant, 23.4±4.7 %; at rP2X4R L206A mutant, 33.7±8.0%.
In the same order, the values of `CSc1nc(N)c2ncn([C@@H]3O[C@H](COP(=O)(O)OP(=O)(O)OP(=O)(O)O)[C@@H](O)[C@H]3O)c2n1` [2-MeS-ATP, 2-(Methylthio)adenosine 5′-triphosphate] are 69.0±3.0%, 79.3±6.7% and 68.3±6.5%.
On to `Nc1ncnc2c1ncn2[C@@H]1O[C@H](COP(=O)(O)OP(=O)(O)OP(=O)(O)O)[C@@H](O)[C@H]1O` [ATP], for which the τdes1 at rP2X4R L284A mutant (setting [1]) is reported as 0.8 ± 0.1 s; at rP2X4R T211A mutant (setting [1]), 0.9 ± 0.4 s; at rP2X4R L206A mutant (setting [1]), 1.1 ± 0.2 s. In addition, the τdes2 on rP2X4R L284A mutant (setting [1]) is listed as 7.2 ± 1.0 s; on rP2X4R T211A mutant (setting [1]), 8.3 ± 2.4 s; on rP2X4R L206A mutant (setting [1]), 8.9 ± 2.2 s. The Imax on rP2X4R L284A mutant (100–1000 µM ATP) stood at 2.4 ± 0.3 nA; at rP2X4R T211A mutant (100–1000 µM ATP), 2.3 ± 0.3 nA; on rP2X4R L206A mutant (100–1000 µM ATP), 2.4 ± 0.3 nA. Moreover, the “Imax+IVM” value on rP2X4R L284A mutant (ATP after 3 µM IVM 4-6 min) was 4.1 ± 0.3 nA; on rP2X4R T211A mutant (ATP after 3 µM IVM 4-6 min) it was 3.9 ± 0.7 nA; at rP2X4R L206A mutant (ATP after 3 µM IVM 4-6 min) it was 4.8 ± 0.8 nA. Moreover, the “A2 /(A1+A2)” value on rP2X4R L284A mutant (setting [2]) stood at 60 ± 5%; on rP2X4R T211A mutant (setting [2]) it was 60 ± 8%; at rP2X4R L206A mutant (setting [2]), 70 ± 4%. The “τoff +IVM” value at rP2X4R L284A mutant (setting [3]) turned out to be 28 ± 2.3 s; at rP2X4R T211A mutant (setting [3]), 28 ± 2.5 s; on rP2X4R L206A mutant (setting [3]), 9.0 ± 1.4 s. Moreover, the EC50 on rP2X4R L284A mutant (setting [4]) is 3.9 ± 1.9 µM; at rP2X4R T211A mutant (setting [4]) it was 2.6 ± 0.6 µM; on rP2X4R L206A mutant (setting [4]), 10 ± 4.1 µM. In addition, the τdes was determined as 4.8 ± 0.9 s on rP2X4R L284A mutant (weighted, 100 µM ATP 60 s); 5.0 ± 1.1 s at rP2X4R T211A mutant (weighted, 100 µM ATP 60 s); 6.3 ± 1.6 s on rP2X4R L206A mutant (weighted, 100 µM ATP 60 s).
For `Nc1ncnc2c1ncn2[C@@H]1O[C@H](CO[P@](=O)(O)O[P@](=O)(O)O[P@@](=O)(O)S)[C@@H](O)[C@H]1O` [ATPγS, Adenosine 5′-(γ-thio)triphosphate], the relative responsiveness at rP2X4R L284A mutant is reported as 32.4±8.2%; on rP2X4R T211A mutant it was 61.8±6.1%; on rP2X4R L206A mutant, 39.6±8.4%.
With `CC[C@H](C)[C@H]1O[C@]2(CC[C@@H]1C)C[C@@H]1C[C@@H](C/C=C(\C)[C@@H](O[C@H]3C[C@H](OC)[C@@H](O[C@H]4C[C@H](OC)[C@@H](O)[C@H](C)O4)[C@H](C)O3)[C@@H](C)/C=C/C=C3\CO[C@@H]4[C@H](O)C(C)=C[C@@H](C(=O)O1)[C@]34O)O2` [IVM, ivermectin], the entries for the “Fold incr. Imax” value at rP2X4R L284A mutant (setting [5]), on rP2X4R T211A mutant (setting [5]) and on rP2X4R L206A mutant (setting [5]) were 1.7 ± 0.1 fold, 1.6 ± 0.3 fold and 1.7 ± 0.2 fold, respectively.
Take `Nc1ncnc2c1ncn2C1OC(COP(=O)(O)CP(=O)(O)OP(=O)(O)O)C(O)C1O` (stereo not drawn) [α,β-meATP, α,β-methyleneadenosine 5′-triphosphate]: the relative responsiveness on rP2X4R L284A mutant stood at 22.2±3.9%; at rP2X4R T211A mutant, 39.1±7.2%; on rP2X4R L206A mutant, 27.5±2.5%.
